Data published in ChEMBL document CHEMBL4414635, “Dasymaschalolactams A-E, Aristolactams from a Twig Extract of Dasymaschalon dasymaschalum” (J Nat Prod, 2019).

Assay: Inhibition of Saccharomyces cerevisiae alpha-glucosidase using p-nitrophenyl alpha-D-glucoside as substrate incubated for 0.5 hrs followed by substrate addition and measured after 1 hr by colorimetric assay

Row | Structure (SMILES) | IC50
1 | O=C(/C=C/c1ccc(O)cc1)NCCc1ccc(O)cc1 [N-P-COUMAROYL TYRAMINE] | 4.5 µM
2 | C[C@H]1O[C@H](O[C@H]2[C@H](O)[C@@H](O)[C@@H](O[C@H]3[C@H](O)[C@@H](O)C(O)O[C@@H]3CO)O[C@@H]2CO)[C@H](O)[C@@H](O)[C@@H]1N[C@H]1C=C(CO)[C@@H](O)[C@H](O)[C@H]1O (some centres undefined) [ACARBOSE] | 73.7 µM
3 | COc1cc(/C=C/C(=O)NCCc2ccc(O)cc2)ccc1O [N-TRANS-FERULOYL TYRAMINE] | 24.7 µM
4 | COc1ccc([C@@H]2CC(=O)c3c(O)cc(O)c(O)c3O2)cc1 | 256 µM
